Measurements from patent US6399782B1, “Benzimidazole inhibitors of fructose 1,6-bisphosphatase” (Metabasis Therapeutics, Inc., priority 1997, dated 2002).

Experiments:
human liver FBPase = target: T1, human liver FBPase (Homo sapiens, UniProt P09467); assay: Inhibition of human liver FBPase; assay type: biochemical; conditions: for IC50: values in text, read-out: hlFBPase IC50
T1 construct: made in house; host or cells: E. coli BL21
T1 sequence (P09467 2-338 limits assumed): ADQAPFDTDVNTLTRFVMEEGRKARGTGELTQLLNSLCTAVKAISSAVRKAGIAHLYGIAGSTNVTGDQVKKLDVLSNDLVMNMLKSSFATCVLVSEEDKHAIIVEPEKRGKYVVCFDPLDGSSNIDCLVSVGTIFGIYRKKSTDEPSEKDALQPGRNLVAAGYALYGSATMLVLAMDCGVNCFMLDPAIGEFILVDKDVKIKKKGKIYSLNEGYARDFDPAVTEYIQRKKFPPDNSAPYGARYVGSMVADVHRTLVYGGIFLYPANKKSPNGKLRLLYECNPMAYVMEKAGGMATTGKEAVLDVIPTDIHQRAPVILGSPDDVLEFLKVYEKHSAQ

Human adenosine kinase = target: T2, Human adenosine kinase (Homo sapiens, UniProt P55263); assay: Adenosine kinase selectivity assay; assay type: biochemical; conditions: for IC50: Table 3 Selectivity, read-out: Adenosine Kinase (inh.); for effect on adenosine kinase: result in words
T2 construct: made in house; host or cells: E. coli
T2 sequence (P55263 1-345 isoform P55263-2): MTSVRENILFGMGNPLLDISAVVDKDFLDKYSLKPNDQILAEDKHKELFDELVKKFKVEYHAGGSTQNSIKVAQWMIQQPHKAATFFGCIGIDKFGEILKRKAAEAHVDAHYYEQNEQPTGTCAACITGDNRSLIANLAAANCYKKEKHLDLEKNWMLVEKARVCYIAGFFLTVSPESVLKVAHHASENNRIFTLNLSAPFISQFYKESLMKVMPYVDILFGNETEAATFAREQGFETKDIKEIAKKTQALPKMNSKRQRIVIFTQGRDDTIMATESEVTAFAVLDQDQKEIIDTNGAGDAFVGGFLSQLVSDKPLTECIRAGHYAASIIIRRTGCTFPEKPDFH
Description: (§1) To determine the selectivity of compounds towards FBPase, effects of FBPase inhibitors on 5 key AMP binding enzymes were measured using the assays described below:
Adenosine Kinase: Human adenosine kinase was purified from an E. coli expression system as described by Spychala et al (Spychala, J., Datta, N. S., Takabayashi, K., Datta, M., Fox, I. H., Gribbin, T., and Mitchell, B. S. (1996) Proc. Natl. Acad. Sci. USA 93, 1232-1237). Activity was measured essentially as described by Yamada et at (Yamada, Y., Goto, H., Ogasawara, N. (1988) Biochim. Biophys. Acta 660, 36-43.) with a few minor modifications. Assay mixtures contained 50 mM TRIS-maleate buffer, pH 7.0, 0.1% BSA, 1 mM ATP 1 mM MgCl2, 1.0 μM [U-^14C] adenosine (400-600 mCi/mmol) and varying duplicate concentrations of inhibitor. ^14C-AMP was separated from unreacted ^14C-adenosine by absorption to anion exchange paper (Whatman) and quantified by scintillation counting.

Porcine heart AMPDA = assay: Adenosine monophosphate deaminase selectivity assay; assay type: biochemical; conditions: AMP deaminase vs hlFBPase
Description: as §1
Adenosine Monophosphate Deaminase: Porcine heart AMPDA was purified essentially as described by Smiley et al. (Smiley, K. L., Jr, Berry, A. J., and Suelter, C. H. (1967) J. Biol. Chem. 242, 2502-2506) through the phosphocellulose step. Inhibition of AMPDA activity was determined at 37° C. in a 0.1 mL assay mixture containing inhibitor, ˜0.005 U AMPDA, 0.1% bovine serum albumin, 10 mM ATP, 250 mM KCl, and 50 mM MOPS at pH 6.5. The concentration of the substrate AMP was varied from 0.125-10.0 mM. Catalysis was initiated by the addition of enzyme to the otherwise complete reaction mixture, and terminated after 5 minutes by injection into an HPLC system. Activities were determined from the amount of IMP formed during 5 minutes.

[1] = target: T3, Adenylate Kinase (rabbit muscle) (Oryctolagus cuniculus, UniProt P00569); assay: Adenylate kinase selectivity assay; assay type: biochemical; conditions: for IC50: Table 3 Selectivity, read-out: Adenylate Kinase (inh.); for effect on adenylate kinase: result in words
T3 construct: Enzyme (rabbit muscle) was purchase from Sigma; purchased Sigma; host or cells: rabbit muscle
T3 sequence (P00569 1-194): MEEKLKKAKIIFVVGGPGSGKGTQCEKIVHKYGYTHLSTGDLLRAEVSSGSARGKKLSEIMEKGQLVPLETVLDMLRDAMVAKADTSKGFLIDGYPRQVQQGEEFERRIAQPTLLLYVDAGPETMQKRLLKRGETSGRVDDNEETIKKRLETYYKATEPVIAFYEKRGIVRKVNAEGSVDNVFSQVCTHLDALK
Description: as §1
Adenylate Kinase: Enzyme (rabbit muscle) was purchase from Sigma. Activity was measured at 37° C. in reaction mixtures (100 μL) containing 100 mM Hepes, pH 7.4, 45 mM MgCl2, 1 mM EGTA, 100 mM KCl, 2 mg/ml BSA, 1 mM AMP and 2 mM ATP. Reactions were started by addition of 4.4 ng enzyme and terminated after 5 minutes by addition of 17 μL perchloric acid. Precipitated protein was removed by centrifugation and the supernatant neutralized by addition of 33 μL 3 M KOH/3 M KH2CO3. The neutralized solution was clarified by centrifugation and filtration and analyzed for ADP content (enzyme activity) by HPLC using a YMC ODS AQ column (25×4.6 cm). A gradient was run from 0.1 M KH2PO4, pH 6, 8 mM tetrabutyl ammonium hydrogen sulfate to 75% acetonitrile. Absorbance was monitored at 254 nm.

[2] = tested on: Zucker Diabetic Fatty rats; assay: Inhibition of gluconeogenesis in Zucker Diabetic Fatty rats (14C-bicarbonate incorporation into glucose); assay type: in vivo, rat; conditions: 50 mg/kg bolus via jugular catheter
Description: Nine Zucker Diabetic Fatty rats (16-weeks old, Genetics Models Inc., Indianapolis, Ind.) were fasted at midnight and instrumented with jugular catheters the following morning. […] After 50minutes a bolus of^14 C-sodium bicarbonate ([…]) was administered via the same route. 20 minutes later, the animals were quickly anesthetized with intravenous pentobarbitol and a blood sample (1.5 mL) was taken by cardiac puncture. Blood (0.5 mL) was diluted into 6 mL deionized water and protein precipitated by addition of 1 mL zinc sulfate (0.3 N) and 1 mL barium hydroxide (0.3 N). The mixture was centrifuged (20 minutes, 1000×g) and 5 mL of the resulting supernatant was then combined with 1 g of a mixed bed ion exchange resin (1 part AG 50W-X8, 100-200 mesh, hydrogen form and 2 parts of AG 1-X8, 100-200 mesh, acetate form) to separate ^14C-bicarbonate from ^14C-glucose. The slurry was shaken at room temperature for four hours and then allowed to settle. An aliquot of the supernatant (0.5 mL) was then counted in 5 mL scintillation cocktail.

IC50 (human liver FBPase) [µM] | IC50 (Human adenosine kinase) [µM] | effect on adenosine kinase (Human adenosine kinase) | half-maximal inhibition of AMP deaminase relative to IC50 for FBPase (Porcine heart AMPDA) [fold] | IC50 [1] [µM] | effect on adenylate kinase [1] | melting point [°C] | SMILES | inhibition of human liver FBPase activity (FIG. 2) (human liver FBPase; result in words) | reduction of incorporation of 14C-bicarbonate into 14C-glucose [2] | 14C-Glucose Produced (cpm/mL blood) ([2]; 14C-bicarbonate after 50 minutes, blood 20 minutes later) | % Glucose Produced ([2]; saline = 100) [%]
0.055 | > 100 | essentially without effect | ~600 | > 500 | essentially without effect | 258 to 260 | Nc1c(F)ccc2c1nc(-c1ccc(P(=O)(O)O)o1)n2CC1CC1 [Compound 12.61, 4-Amino-5-fluoro-1-cyclopropylmethyl-2-(2-phosphono-5-furanyl)benzimidazole] | inhibit human liver FBPase activity in vitro in a dose dependent manner | – | – | –
– | – | – | – | – | – | – | CCc1cc(F)c(N)c2nc(-c3ccc(P(=O)(O)O)o3)n(CC(C)C)c12 [Compound 12.64] | – | approximately 50% | 32,827 ± 6130 cpm/mL blood | 49.2
2 | > 10 | essentially inactive | 42 | > 500 | essentially inactive | > 250 | CCn1c(-c2ccc(P(=O)(O)O)o2)nc2c(N)cccc21 [Compound 12.1, 4-Amino-1-ethyl-2-[2-(5-phosphono)furanyl]benzimidazole] | – | – | – | –
